We go through eight molecules from ChEMBL document CHEMBL1201862, “PubChem BioAssay data set” (2004).

Common to all, as to test: NCI-60 cell line screen, 48 h
Assay [1] relates to HCT-116.
Assay [2] deals with OVCAR-5.
Assay [3] deals with SF-268.
In assay [4] the test system is A498.
Assay [5] deals with BT-549.
Assay [6] relates to CAKI-1.
In assay [7] the test system is UO-31.
The test system of assay [8] is DU-145.
For assay [9], the system named is RPMI-8226.
In assay [10] the test system is HT-29.
Assay [11] relates to TK-10.
Assay [12] has as its system HOP-92.
The test system of assay [13] is PC-3.
In assay [14] the test system is COLO 205.
The test system of assay [15] is Hs-578T.
Assay [16] deals with SW-620.
For assay [17], the system named is SF-295.
For assay [18], the system named is A549.
For assay [19], the system named is SN12C.

Each structure is given as a SMILES string.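 Five concentrations, 48 hours, 96-well plates. Here, GI50 denotes the concentration required for 50% inhibition of growth.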 Calls of active or inactive are those of the source. Rule as the data show it: active = GI50 up to about 1.1 µM and inactive = higher.

Regarding `COC(=O)/C=C1/OC(c2ccc(C)cc2C)=CC1=O`, the GI50 in assay [1] was 11.5 µM (inactive); in assay [2] it was 15.7 µM (inactive); in assay [3] it was 17.8 µM (inactive); in assay [4], 20.7 µM (inactive); in assay [5], 16.3 µM (inactive); in assay [6] it was 19.5 µM (inactive). The GI50 is 16.8 µM (inactive) in assay [7]; 15.5 µM (inactive) in [8]; 3.63 µM (inactive) in assay [9]; 5.18 µM (inactive) in assay [10]; 17.5 µM (inactive) in assay [11]; 16.6 µM (inactive) in [12]. The GI50 was 17.8 µM (inactive) in assay [13], 16.6 µM (inactive) in [14], 33.4 µM (inactive) in assay [15] and 2.82 µM (inactive) in [16].

Regarding `CCOP(=O)(OCC)C(NC(=O)C(C(F)(F)F)C(F)(F)F)c1ccccc1` (stereo not drawn), the GI50 in assay [1] was > 100 µM (inactive); in assay [2] it was > 100 µM (inactive); in assay [3] it was > 100 µM (inactive); in [5], > 10 µM (inactive); in assay [6], > 100 µM (inactive); in assay [17], > 100 µM (inactive). In addition, the GI50 is 49.9 µM (inactive) in [7]; > 100 µM (inactive) in assay [8]; > 100 µM (inactive) in assay [18]; 21.7 µM (inactive) in [9]; > 100 µM (inactive) in [19]; > 100 µM (inactive) in [10]. Besides, the GI50 in [11], in [12], in assay [13], in assay [14], in assay [15] and in assay [16] was > 100 µM (inactive) each time.

As to `NC1=NNC2(C(N)=N1)c1ccccc1-c1ccccc12`, the GI50 in assay [1] is > 10 µM (inactive); in [3], > 10 µM (inactive); in assay [5], > 10 µM (inactive); in assay [6], > 10 µM (inactive); in [17], > 10 µM (inactive); in [7], 5.13 µM (inactive). Also, the GI50 in [8], in assay [18], in assay [9], in [19], in [10] and in assay [11] was > 10 µM (inactive) in each case. Further, the GI50 in [12], in assay [13], in assay [14], in assay [15] and in assay [16] was > 10 µM (inactive) throughout.

With `OC(c1ccc(F)cc1)C(F)(F)c1nc(-c2ccccc2)no1` (stereo not drawn), the GI50 in [1] is 19.1 µM (inactive); in assay [2] it was 18.1 µM (inactive); in assay [3], 25.3 µM (inactive); in assay [4] it was 22.6 µM (inactive); in assay [5] it was 17.8 µM (inactive); in [6] it was 27 µM (inactive). Further, the GI50 in assay [7] was 19 µM (inactive); in assay [8] it was 21.2 µM (inactive); in [19], 21.6 µM (inactive); in assay [10] it was 17.6 µM (inactive); in assay [11], 38.3 µM (inactive); in assay [12] it was 23.7 µM (inactive). Moreover, the GI50 in assay [13] was 21.8 µM (inactive); in assay [15] it was 30.5 µM (inactive); in assay [16] it was 19.3 µM (inactive).

Regarding `CN1CCCCC1CCN1CCCCC1` (stereo not drawn), the GI50 in assay [1], in assay [2], in assay [3], in assay [4], in [5] and in assay [6] was > 100 µM (inactive) each time. Further, the GI50 in assay [17], in assay [7], in assay [8], in assay [18], in assay [9] and in [19] was > 100 µM (inactive) each time. Also, the GI50 in [10] is > 100 µM (inactive); in [11], > 100 µM (inactive); in [12] it was > 100 µM (inactive); in assay [13], > 100 µM (inactive); in [14] it was 56.4 µM (inactive); in [15], > 100 µM (inactive). For the same molecule, the GI50 in assay [16] was > 100 µM (inactive).

For the molecule `COC(=O)C1=Nc2c(C)nn(-c3ccccc3)c2N=C(c2ccc([N+](=O)[O-])cc2)C1`, the GI50 in assay [1] was > 10 µM (inactive); in assay [2], 5.98 µM (inactive); in assay [3], > 10 µM (inactive); in [5], > 10 µM (inactive); in [6], > 10 µM (inactive); in [17], > 10 µM (inactive). Further, the GI50 in assay [8], in [18], in [9], in assay [19], in [10] and in assay [11] was > 10 µM (inactive) in each case. The GI50 in assay [12], in [13], in [14], in assay [15] and in [16] was > 10 µM (inactive) each time.

Consider `COc1ccc2nc3cc(Cl)ccc3c(NCCCN3CCN(CCCNc4ccc5nnn6c7ccccc7c(=O)c4c56)CC3)c2c1`, for which the GI50 in assay [1] is 0.0191 µM (active); in [2], > 21.2 µM (inactive); in [3], > 7.36 µM (inactive); in assay [4] it was > 25 µM (inactive); in assay [5], 5.24 µM (inactive); in assay [6], > 5.62 µM (inactive). The GI50 in [17] was 2.37 µM (inactive); in assay [7] it was > 7.5 µM (inactive); in assay [8], > 25 µM (inactive); in assay [18], 0.172 µM (active); in [19] it was 1.81 µM (inactive); in assay [10], 0.0251 µM (active). For the same molecule, the GI50 in assay [11] was > 10.3 µM (inactive); in [12], > 25 µM (inactive); in assay [13] it was > 6.01 µM (inactive); in assay [14] it was 0.923 µM (active); in assay [15] it was > 25 µM (inactive); in assay [16], 0.0458 µM (active).

With `CC(=O)Nc1ccc(S(=O)(=O)[N-]C2C(=O)c3ccccc3C(=O)C2[n+]2ccccc2)cc1` (stereo not drawn), the GI50 in assay [1] was > 100 µM (inactive); in assay [2], 17.7 µM (inactive); in [3] it was 18.5 µM (inactive); in assay [5], 3.02 µM (inactive); in [6], > 100 µM (inactive); in assay [17], 15.4 µM (inactive). The GI50 in assay [7] is 9.06 µM (inactive); in [8] it was > 100 µM (inactive); in assay [18] it was 19.5 µM (inactive); in assay [9], 17.5 µM (inactive); in [19], 99.3 µM (inactive); in assay [10], 45.1 µM (inactive). Also, the GI50 in assay [11] was > 100 µM (inactive); in assay [12], 17.4 µM (inactive); in assay [13] it was 17.1 µM (inactive); in assay [14], > 100 µM (inactive); in assay [15] it was 23.1 µM (inactive); in [16] it was 17.1 µM (inactive).
